The source made the active and inactive calls. How the calls were made is not given here.
Tests used:
Type in all cases: functional
[1] = Antioxidant activity assessed as metal chelating activity by measuring inhibition of ferrozine-Fe2+ complex formation at 25 to 100 ug/ml
Aspergillus flavus [2] = experiment: Antimicrobial activity against Aspergillus flavus MTCC 1973 at 500 ug/ml after 72 hrs by cup plate method; conditions: MTCC 1973, 72 h, read-out: IZ
Aspergillus flavus [3] = experiment: Antimicrobial activity against Aspergillus flavus MTCC 1973 at 750 ug/ml after 72 hrs by cup plate method; conditions: MTCC 1973, 72 h, read-out: IZ
Aspergillus flavus [4] = experiment: Antimicrobial activity against Aspergillus flavus MTCC 1973 at 1000 ug/ml after 72 hrs by cup plate method; conditions: MTCC 1973, 72 h, read-out: IZ
Aspergillus terreus [5] = experiment: Antimicrobial activity against Aspergillus terreus MTCC 1782 at 500 ug/ml after 72 hrs by cup plate method; conditions: MTCC 1782, 72 h, read-out: IZ
Aspergillus terreus [6] = experiment: Antimicrobial activity against Aspergillus terreus MTCC 1782 at 750 ug/ml after 72 hrs by cup plate method; conditions: MTCC 1782, 72 h, read-out: IZ
Aspergillus terreus [7] = experiment: Antimicrobial activity against Aspergillus terreus MTCC 1782 at 1000 ug/ml after 72 hrs by cup plate method; conditions: MTCC 1782, 72 h, read-out: IZ
Aspergillus oryzae [8] = experiment: Antimicrobial activity against Aspergillus oryzae MTCC 3567 at 500 ug/ml after 72 hrs by cup plate method; conditions: MTCC 3567, 72 h, read-out: IZ
Aspergillus oryzae [9] = experiment: Antimicrobial activity against Aspergillus oryzae MTCC 3567 at 750 ug/ml after 72 hrs by cup plate method; conditions: MTCC 3567, 72 h, read-out: IZ
Aspergillus oryzae [10] = experiment: Antimicrobial activity against Aspergillus oryzae MTCC 3567 at 1000 ug/ml after 72 hrs by cup plate method; conditions: MTCC 3567, 72 h, read-out: IZ
Aspergillus niger [11] = experiment: Antimicrobial activity against Aspergillus niger MTCC 281 at 500 ug/ml after 72 hrs by cup plate method; conditions: MTCC 281, 72 h, read-out: IZ
Aspergillus niger [12] = experiment: Antimicrobial activity against Aspergillus niger MTCC 281 at 750 ug/ml after 72 hrs by cup plate method; conditions: MTCC 281, 72 h, read-out: IZ
Aspergillus niger [13] = experiment: Antimicrobial activity against Aspergillus niger MTCC 281 at 1000 ug/ml after 72 hrs by cup plate method; conditions: MTCC 281, 72 h, read-out: IZ
Pseudomonas aeruginosa [14] = experiment: Antimicrobial activity against Pseudomonas aeruginosa MTCC 1688 at 500 ug/ml after 24 hrs by cup plate method; conditions: MTCC 1688, 24 h, read-out: IZ
Pseudomonas aeruginosa [15] = experiment: Antimicrobial activity against Pseudomonas aeruginosa MTCC 1688 at 750 ug/ml after 24 hrs by cup plate method; conditions: MTCC 1688, 24 h, read-out: IZ
Pseudomonas aeruginosa [16] = experiment: Antimicrobial activity against Pseudomonas aeruginosa MTCC 1688 at 1000 ug/ml after 24 hrs by cup plate method; conditions: MTCC 1688, 24 h, read-out: IZ
Klebsiella pneumoniae [17] = experiment: Antimicrobial activity against Klebsiella pneumoniae NCTC 13368 at 500 ug/ml after 24 hrs by cup plate method; conditions: NCTC 13368, 24 h, read-out: IZ
Klebsiella pneumoniae [18] = experiment: Antimicrobial activity against Klebsiella pneumoniae NCTC 13368 at 750 ug/ml after 24 hrs by cup plate method; conditions: NCTC 13368, 24 h, read-out: IZ
Klebsiella pneumoniae [19] = experiment: Antimicrobial activity against Klebsiella pneumoniae NCTC 13368 at 1000 ug/ml after 24 hrs by cup plate method; conditions: NCTC 13368, 24 h, read-out: IZ
Staphylococcus aureus [20] = experiment: Antimicrobial activity against Staphylococcus aureus ATCC 29513 at 500 ug/ml after 24 hrs by cup plate method; conditions: ATCC 29513, 24 h, read-out: IZ
Staphylococcus aureus [21] = experiment: Antimicrobial activity against Staphylococcus aureus ATCC 29513 at 750 ug/ml after 24 hrs by cup plate method; conditions: ATCC 29513, 24 h, read-out: IZ
Staphylococcus aureus [22] = experiment: Antimicrobial activity against Staphylococcus aureus ATCC 29513 at 1000 ug/ml after 24 hrs by cup plate method; conditions: ATCC 29513, 24 h, read-out: IZ
Escherichia coli [23] = experiment: Antimicrobial activity against Escherichia coli MTCC 723 at 500 ug/ml after 24 hrs by cup plate method; conditions: MTCC 723, 24 h, read-out: IZ
Escherichia coli [24] = experiment: Antimicrobial activity against Escherichia coli MTCC 723 at 750 ug/ml after 24 hrs by cup plate method; conditions: MTCC 723, 24 h, read-out: IZ
Escherichia coli [25] = experiment: Antimicrobial activity against Escherichia coli MTCC 723 at 1000 ug/ml after 24 hrs by cup plate method; conditions: MTCC 723, 24 h, read-out: IZ

SMILES	Activity [1]	zone of inhibition at 500 µg/mL (Aspergillus flavus [2]) [mm]	zone of inhibition at 750 µg/mL (Aspergillus flavus [3]) [mm]	zone of inhibition at 1000 µg/mL (Aspergillus flavus [4]) [mm]	zone of inhibition at 500 µg/mL (Aspergillus terreus [5]) [mm]	zone of inhibition at 750 µg/mL (Aspergillus terreus [6]) [mm]	zone of inhibition at 1000 µg/mL (Aspergillus terreus [7]) [mm]	zone of inhibition at 500 µg/mL (Aspergillus oryzae [8]) [mm]	zone of inhibition at 750 µg/mL (Aspergillus oryzae [9]) [mm]	zone of inhibition at 1000 µg/mL (Aspergillus oryzae [10]) [mm]	zone of inhibition at 500 µg/mL (Aspergillus niger [11]) [mm]	zone of inhibition at 750 µg/mL (Aspergillus niger [12]) [mm]	zone of inhibition at 1000 µg/mL (Aspergillus niger [13]) [mm]	zone of inhibition at 500 µg/mL (Pseudomonas aeruginosa [14]) [mm]	zone of inhibition at 750 µg/mL (Pseudomonas aeruginosa [15]) [mm]	zone of inhibition at 1000 µg/mL (Pseudomonas aeruginosa [16]) [mm]	zone of inhibition at 500 µg/mL (Klebsiella pneumoniae [17]) [mm]	zone of inhibition at 750 µg/mL (Klebsiella pneumoniae [18]) [mm]	zone of inhibition at 1000 µg/mL (Klebsiella pneumoniae [19]) [mm]	zone of inhibition at 500 µg/mL (Staphylococcus aureus [20]) [mm]	other results
Cc1ccc2[nH]c(-c3ccccc3)c(C3C=C(c4ccc(Cl)cc4)Oc4nc[nH]c(=O)c43)c2c1 (stereo not given)	Active	5	5	5	6	6	6	8	8	8	10	10	11	4	4	4	5	5	5	10	zone of inhibition at 750 µg/mL (Staphylococcus aureus [21]): 10 mm; zone of inhibition at 1000 µg/mL (Staphylococcus aureus [22]): 10 mm; zone of inhibition at 500 µg/mL (Escherichia coli [23]): 8 mm; zone of inhibition at 750 µg/mL (Escherichia coli [24]): 8 mm; zone of inhibition at 1000 µg/mL (Escherichia coli [25]): 8 mm
Cc1ccc2[nH]c(-c3ccccc3)c(C3C=C(c4ccc(Cl)cc4)Oc4nc5oc(=O)c(C#N)c(N)c5c(N)c43)c2c1 (stereo not given)	Active	5	5	5	10	9	8	4	3	3	10	10	10	10	10	10	11	11	9	13	zone of inhibition at 750 µg/mL (Staphylococcus aureus [21]): 13 mm; zone of inhibition at 1000 µg/mL (Staphylococcus aureus [22]): 14 mm; zone of inhibition at 500 µg/mL (Escherichia coli [23]): 13 mm; zone of inhibition at 750 µg/mL (Escherichia coli [24]): 13 mm; zone of inhibition at 1000 µg/mL (Escherichia coli [25]): 13 mm
Cc1ccc(C2=CC(c3c(-c4ccccc4)[nH]c4ccccc34)c3c(N)nc(=S)[nH]c3O2)cc1 (stereo not given)	Active	3	3	3	6	4	4	10	9	9	6	5	2	5	5	3	9	9	3	6	zone of inhibition at 750 µg/mL (Staphylococcus aureus [21]): 4 mm; zone of inhibition at 1000 µg/mL (Staphylococcus aureus [22]): 4 mm; zone of inhibition at 500 µg/mL (Escherichia coli [23]): 9 mm; zone of inhibition at 750 µg/mL (Escherichia coli [24]): 8 mm; zone of inhibition at 1000 µg/mL (Escherichia coli [25]): 3 mm

Reference: ChEMBL document CHEMBL2346657, “Synthesis of novel 2-amino-4-(5'-substituted 2'-phenyl-1H-indol-3'-yl)-6-aryl-4H-pyran-3-carbonitrile derivatives as antimicrobial and antioxidant agents” (2013)
